{"source": "ChEMBL document CHEMBL1138336", "about": "“Design and synthesis of novel and potent amide linked PPARgamma/delta dual agonists” (Bioorg Med Chem Lett, 2007)", "key": {"[1]": {"biological_target": "T1, Peroxisome proliferator-activated receptor alpha (Homo sapiens, UniProt Q07869)", "T1 sequence (Q07869 whole entry)": "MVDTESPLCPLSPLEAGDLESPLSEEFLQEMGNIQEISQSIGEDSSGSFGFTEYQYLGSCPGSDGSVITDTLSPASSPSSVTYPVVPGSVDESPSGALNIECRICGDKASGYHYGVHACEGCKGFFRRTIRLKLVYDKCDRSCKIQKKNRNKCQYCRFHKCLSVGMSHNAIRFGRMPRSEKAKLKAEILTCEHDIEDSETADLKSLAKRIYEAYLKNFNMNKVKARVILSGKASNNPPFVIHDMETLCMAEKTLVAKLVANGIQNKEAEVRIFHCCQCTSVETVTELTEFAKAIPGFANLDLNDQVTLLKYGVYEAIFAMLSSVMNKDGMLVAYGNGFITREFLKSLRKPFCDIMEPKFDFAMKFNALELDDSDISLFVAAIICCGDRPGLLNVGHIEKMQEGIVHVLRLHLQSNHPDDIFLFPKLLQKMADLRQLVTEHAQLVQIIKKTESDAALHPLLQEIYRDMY"}, "[2]": {"biological_target": "T2, Peroxisome proliferator-activated receptor delta (Homo sapiens, UniProt Q03181)", "T2 sequence (Q03181 whole entry)": "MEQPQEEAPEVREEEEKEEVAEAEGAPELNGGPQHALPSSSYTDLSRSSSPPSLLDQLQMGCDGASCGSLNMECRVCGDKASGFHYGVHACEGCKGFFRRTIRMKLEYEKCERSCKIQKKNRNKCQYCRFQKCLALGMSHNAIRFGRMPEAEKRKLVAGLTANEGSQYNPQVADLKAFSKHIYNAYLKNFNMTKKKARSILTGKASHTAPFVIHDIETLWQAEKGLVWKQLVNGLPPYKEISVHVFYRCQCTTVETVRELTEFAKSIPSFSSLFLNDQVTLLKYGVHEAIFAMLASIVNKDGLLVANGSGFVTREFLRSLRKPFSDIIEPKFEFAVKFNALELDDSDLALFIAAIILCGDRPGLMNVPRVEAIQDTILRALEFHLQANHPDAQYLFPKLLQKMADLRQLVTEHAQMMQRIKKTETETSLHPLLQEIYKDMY"}, "[3]": {"biological_target": "T1, Peroxisome proliferator-activated receptor alpha", "remark": "listed apart in the source"}, "[4]": {"biological_target": "T2, Peroxisome proliferator-activated receptor delta", "remark": "listed apart in the source"}, "Rattus norvegicus": {"organism": "Rattus norvegicus", "assay": "animal or person", "type": "functional", "conditions": "ZDF, po, 168 h"}}, "data": [{"smiles": "Cc1cc(Oc2cccc(CNC(=O)c3ccc(C(F)(F)F)cc3C)c2)ccc1CCC(=O)O", "values": [{"measurement": "IC50", "setting": "[1]", "value": "> 10000", "unit": "nM"}, {"measurement": "IC50", "setting": "[2]", "value": 5, "unit": "nM"}, {"measurement": "EC50", "setting": "[3]", "value": 2890, "unit": "nM"}, {"measurement": "EC50", "setting": "[4]", "value": 33, "unit": "nM"}]}, {"smiles": "Cc1cc(Oc2cccc(CNC(=O)c3cc4cc(Cl)ccc4n3C)c2)ccc1CCC(=O)O", "values": [{"measurement": "IC50", "setting": "[1]", "value": "> 10000", "unit": "nM"}, {"measurement": "IC50", "setting": "[2]", "value": 3, "unit": "nM"}, {"measurement": "EC50", "setting": "[3]", "value": 2740, "unit": "nM"}, {"measurement": "EC50", "setting": "[4]", "value": 87, "unit": "nM"}]}, {"smiles": "CCc1cc(Oc2cc(F)cc([C@@H](C)NC(=O)c3c(C)c4cc(Cl)ccc4n3C)c2)ccc1CCC(=O)O", "values": [{"measurement": "ED50", "setting": "Rattus norvegicus", "value": 0.82, "unit": "mg/kg"}, {"measurement": "IC50", "setting": "[1]", "value": 10300, "unit": "nM"}, {"measurement": "EC50", "setting": "[3]", "value": 2820, "unit": "nM"}]}, {"smiles": "Cc1cc(Oc2cccc(CNC(=O)c3c(C)c4cc(Cl)ccc4n3C)c2)ccc1CCC(=O)O", "values": [{"measurement": "IC50", "setting": "[1]", "value": "> 10000", "unit": "nM"}, {"measurement": "IC50", "setting": "[2]", "value": 3, "unit": "nM"}, {"measurement": "EC50", "setting": "[3]", "value": 2650, "unit": "nM"}, {"measurement": "EC50", "setting": "[4]", "value": 4, "unit": "nM"}]}, {"smiles": "CCc1cc(Oc2cc(F)cc([C@@H](C)NC(=O)c3sc4ccc(Cl)cc4c3C)c2)ccc1CCC(=O)O", "values": [{"measurement": "IC50", "setting": "[1]", "value": 9340, "unit": "nM"}]}]}
